The record followed here is ChEMBL document CHEMBL1154717.

pIC50: −log10 of the molar value. Activity calls are given as the source filed them. The rule behind the calls is not given here.

A short description of series [1]: Cmax in Sprague-Dawley rat at 25 mg/kg, po. Format: ADME, organism-based. More on the design: dose 25 mg/kg, route oral. The following applies: in vivo.
The nature of series [2]: Terminal half life in Sprague-Dawley rat at 25 mg/kg, po. Format: ADME, organism-based. Details: dose 25 mg/kg, route oral. The following applies: in vivo, read-out: beta t1/2 (converted).
A short description of series [3]: Oral bioavailability in Sprague-Dawley rat at 25 mg/kg. Format: ADME, organism-based. To be noted: in vivo.
The test system of series [4] is HCT-116. Kind of series: cells. To be noted: Homo sapiens, HCT-116, 96 h.
For series [5], the system named is HCT-116. In words: cells. The following applies: Homo sapiens, HCT-116, 96 h. This is another data set of the same source.
Series [6] addresses T1, Tumour suppressor p53/oncoprotein Mdm2 (Homo sapiens) (UniProt P04637+Q00987). In words: Inhibition of MDM2-p53 interaction in human SJSA1 cells expressing wild type p53 assessed as increase in MDM2 protein level at 10 uM by Western blot. It counts as cell-based. To be noted: SJSA-1.
The target in series [7] is T1, Tumour suppressor p53/oncoprotein Mdm2 (Homo sapiens). In words: Inhibition of MDM2-p53 interaction in human SJSA1 cells expressing wild type p53 assessed as increase in p21 protein level at 10 uM by Western blot. It counts as cell-based. To be noted: SJSA-1.
Series [8] is described as follows: Cmax in Sprague-Dawley rat at 50 mg/kg, po. To be noted: in vivo. It counts as ADME, organism-based. Details: dose 50 mg/kg, route oral.
For series [9], the system named is Rattus norvegicus. Kind of series: AUC (0 to t) in Sprague-Dawley rat at 50 mg/kg, po. It counts as ADME, organism-based, Plasma. Details: dose 50 mg/kg, route oral. To be noted: in vivo.
Series [10] in a line: Terminal half life in Sprague-Dawley rat at 50 mg/kg, po. Details: dose 50 mg/kg, route oral. It counts as ADME, organism-based. To be noted: in vivo, read-out: beta t1/2 (converted).
The nature of series [11]: Oral bioavailability in Sprague-Dawley rat at 50 mg/kg. Format: ADME, organism-based. To be noted: in vivo.
The test system of series [12] is SJSA-1. Kind of series: Induction of cell death in human SJSA1 cells by trypan blue staining. Format: functional, cell-based.
For series [13], the system named is SJSA-1. Kind of series: Induction of cell death in human SJSA1 cells at 1. 25 uM after 2 days by trypan blue staining. It counts as functional.
For another series, the system named is SAOS-2. Kind of series: Induction of cell death in human Saos2 cells deficient in wild type p53 at 10 uM by trypan blue staining. It counts as functional, cell-based.
Series [14] relates to Mus musculus. Kind of series: Toxicity in mouse xenografted with human SJSA1 cells assessed as weight loss at 300 mg/kg, po qd for 14 days relative to untreated control. It counts as organism-based, SJSA-1. Details: dose 300 mg/kg, route oral. To be noted: in vivo, 336 h.
Series [15] deals with Mus musculus. In words: Toxicity in mouse xenografted with human SJSA1 cells assessed as occurrence of toxicity symptoms at 300 mg/kg, po qd for 14 days relative to untreated control. Format: organism-based, SJSA-1. Details: dose 300 mg/kg, route oral. The following applies: in vivo, 336 h.
Series [16] concerns Rattus norvegicus. In words: AUC (0 to t) in Sprague-Dawley rat at 25 mg/kg, po. It counts as ADME, organism-based, Plasma. Details: dose 25 mg/kg, route oral. The following applies: in vivo.

T1 sequence (P04637 whole entry, looked up): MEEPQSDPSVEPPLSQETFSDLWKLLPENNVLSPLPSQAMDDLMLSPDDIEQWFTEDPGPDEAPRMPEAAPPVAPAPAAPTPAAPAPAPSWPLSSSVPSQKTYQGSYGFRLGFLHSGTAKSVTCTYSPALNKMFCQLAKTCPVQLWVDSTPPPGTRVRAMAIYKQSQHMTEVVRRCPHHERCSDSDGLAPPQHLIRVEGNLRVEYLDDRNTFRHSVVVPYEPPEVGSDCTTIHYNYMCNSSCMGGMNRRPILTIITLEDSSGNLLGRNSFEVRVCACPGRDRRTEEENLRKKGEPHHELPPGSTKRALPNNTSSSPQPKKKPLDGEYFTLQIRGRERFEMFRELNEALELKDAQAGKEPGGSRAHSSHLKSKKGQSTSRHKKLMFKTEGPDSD
T1 sequence (Q00987 whole entry, looked up): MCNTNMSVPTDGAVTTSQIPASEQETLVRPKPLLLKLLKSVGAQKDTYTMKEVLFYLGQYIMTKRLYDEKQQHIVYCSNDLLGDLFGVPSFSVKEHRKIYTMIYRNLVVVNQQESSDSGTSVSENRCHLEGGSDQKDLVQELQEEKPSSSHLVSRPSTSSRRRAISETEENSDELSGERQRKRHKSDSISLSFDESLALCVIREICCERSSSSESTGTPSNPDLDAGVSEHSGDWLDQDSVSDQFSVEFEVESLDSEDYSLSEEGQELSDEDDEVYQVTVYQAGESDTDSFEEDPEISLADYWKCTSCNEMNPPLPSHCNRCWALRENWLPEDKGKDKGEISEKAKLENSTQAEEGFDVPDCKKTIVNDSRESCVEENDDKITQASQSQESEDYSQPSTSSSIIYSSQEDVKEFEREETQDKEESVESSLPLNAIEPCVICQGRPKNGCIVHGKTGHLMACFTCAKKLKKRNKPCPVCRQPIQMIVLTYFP

`CC(C)(C)C[C@H]1N[C@@H](C(=O)NC[C@H](O)CO)[C@H](c2cccc(Cl)c2)[C@@]12C(=O)Nc1cc(Cl)c(F)cc12` displayed a Cmax in [1] of 2070 ng/mL. Moreover, in [2], the half-life was 3.2 h. Further, the bioavailability in series [3] was determined as 18%. Further, the pIC50 is 5.89 with HCT-116 [4] and 4.63 in the series with HCT-116 [5].

In [1], `CN1CCC(CCNC(=O)[C@@H]2N[C@H](CC(C)(C)C)[C@]3(C(=O)Nc4cc(Cl)ccc43)[C@H]2c2cccc(Cl)c2F)CC1` gave a Cmax of 120 ng/mL. The half-life in series [2] was 7.1 h. In series [3], this compound gave a bioavailability of 14%. The pIC50 was 6.40 with HCT-116 [4] and 5.14 in the series on HCT-116 [5].

With `CC(C)(C)C[C@H]1N[C@@H](C(=O)NCCN2CCOCC2)[C@H](c2cccc(Cl)c2F)[C@@]12C(=O)Nc1cc(Cl)ccc12`, the Cmax in series [1] is 248 ng/mL. The half-life in series [2] was 1.3 h. Moreover, the bioavailability in [3] is 10%. Also, the pIC50 in the series with HCT-116 [4] is 6.15.

With `COCCOCCNC(=O)[C@@H]1N[C@H](CC(C)(C)C)[C@]2(C(=O)Nc3cc(Cl)ccc32)[C@H]1c1cccc(Cl)c1F`, the maximum concentration (Cmax) in [1] stood at 97 ng/mL. The half-life in series [2] was 1.2 h. For the same compound, the bioavailability in series [3] is 5%. Besides, the pIC50 in the series with HCT-116 [4] is 6.10.

As to `COc1ccc2c(c1)NC(=O)[C@]21[C@@H](CC(C)(C)C)N[C@@H](C(=O)N(C)C)[C@@H]1c1cccc(Br)c1`, the result in series [6] and in series [7] was inactive.

On to `CC(C)(C)C[C@H]1N[C@@H](C(=O)NCC[C@H](O)CO)[C@H](c2cccc(Cl)c2)[C@@]12C(=O)Nc1cc(Cl)ccc12`, for which the Cmax in [1] turned out to be 805 ng/mL. Moreover, the half-life in series [2] was 3 h. Moreover, in series [3], the bioavailability came to 19%. Further, in the series on HCT-116 [4], the pIC50 was 6.10.

As to `CC(C)(C)C[C@H]1N[C@@H](C(=O)NCC[C@H](O)CO)[C@H](c2cccc(Cl)c2F)[C@@]12C(=O)Nc1cc(Cl)ccc12`, in [8], the concentration peaked (Cmax) at 1510 ng/mL. The AUC in the series with Rattus norvegicus [9] is 8770 ng·h/mL. Moreover, the half-life in [10] was 3.9 h. The bioavailability in series [11] worked out at 21%. The Activity result in the series on SJSA-1 [12] was “Dose-dependent effect”; in the series with SJSA-1 [13], 50%; in the series on Mus musculus [14] it was “Non-toxic”; with Mus musculus [15], “Non-toxic”. The outcome with SAOS-2 was inactive. Also, the pIC50 was 6.40 in the series with HCT-116 [4] and 4.80 with HCT-116 [5].

`CN1CCN(CCNC(=O)[C@@H]2N[C@H](CC(C)(C)C)[C@]3(C(=O)Nc4cc(Cl)ccc43)[C@H]2c2cccc(Cl)c2F)CC1` showed a Cmax in series [1] of 274 ng/mL. For the same compound, the half-life in series [2] is 3.8 h. In [3], this compound returned a bioavailability of 31%. The pIC50 in the series on HCT-116 [4] was 6.40.

Regarding `CC(C)(C)C[C@H]1N[C@@H](C(=O)NCC[C@@H](O)CO)[C@H](c2cccc(Cl)c2)[C@@]12C(=O)Nc1cc(Cl)c(F)cc12`, the Cmax in [1] is 3550 ng/mL. Moreover, the AUC in the series with Rattus norvegicus [16] is 11700 ng·h/mL. The half-life in series [2] was 3.4 h. This compound displayed a bioavailability in [3] of 31%. Further, the values for the pIC50 with HCT-116 [4] and with HCT-116 [5] were 5.55 and 4.48, respectively.

In series [1], `CC(C)(C)C[C@H]1N[C@@H](C(=O)NCC[C@H](O)CO)[C@H](c2cccc(Cl)c2)[C@@]12C(=O)Nc1cc(Cl)c(F)cc12` displayed a Cmax of 3750 ng/mL. Moreover, the half-life in series [2] is 1.4 h. Further, the bioavailability in [3] came to 65%. The Activity entry was “Dose-dependent effect” in the series on SJSA-1 [12] and 20% in the series on SJSA-1 [13]. The pIC50 in the series with HCT-116 [4] was 5.96; with HCT-116 [5], 4.61.
